Settings: intranasal 0.05% or 0.1% spray
Protocol: Each group started with approximately 190 subjects.
The plasma samples from 43 subjects included in this clinical trial were collected for pharamacokinetic analysis following the first dose (Day 1) and the last dose (Day 14). Plasma epinastine levels following intranasal administration were determined.

SMILES: NC1=NCC2c3ccccc3Cc3ccccc3N12 (centres unmarked) [epinastine, 3-amino-9,13b-dihydro-1H-dibenz-[c,-f]imidazol[1,5-a]azepine]
- dose proportionality of plasma epinastine concentrations: generally proportional to the nasal dose administered
- plasma concentrations of epinastine (after first dose (Day 1) and last dose (Day 14), 43 subjects): < 1 ng/mL
